Reference: patent EP0761658A1, “Azole-phenyl urea derivatives as ACAT inhibitors and their production” (NIHON NOHYAKU CO., LTD., priority 1995, dated 1997)

Assays:
[1] = tested on: acyl-CoA:cholesterol acyltransferase (ACAT); assay: Inhibitory activity on acyl-CoA:cholesterol acyltransferase (ACAT), microsomal fraction of intestinal mucosa, [1-14C]oleyl-CoA incorporation into cholesterol esters; assay type: biochemical, white rabbit; conditions: rabbit intestinal mucosa microsomes
Description: The enzyme used in the test was prepared according to the method of Heider et al. [J. Lipid Res. 24, 1127 (1983)]. A white rabbit was killed by blood-letting under anesthesia, after which its intestinal mucosa was collected and then homogenized, and microsomal fraction was obtained by stepwise centrifugation. The microsomal fraction was suspended in 0.154 M phosphate buffer (pH 7.4) and stored at -80°C until use.
ACAT activity was determined by a modification of the method of Helgerud et al. [J. Lipid Res. 22, 271 (1981)] by measuring radioactivity incorporated into cholesterol esters from [1-^14C]oleyl-CoA, as an indication. As to the ACAT-inhibitory activity of each compound to be tested, the inhibition rate was calculated by the following equation. Inhibition rate (%) =([ACAT activity of control group which was given solvent]-[ACAT activity of group treated with compound to be tested])/([ACAT activity of control group which was given solvent])x 100 [formula]

[2] = tested on: rats fed on a high-cholesterol diet; assay: Serum cholesterol lowering activity in rats fed on a high-cholesterol diet; assay type: in vivo, Male Sprague-Dawley rats; conditions: Rattus norvegicus, 96 h; total serum cholesterol; 30 mg per kg of body weight per day for 4 days, suspended in 0.5% carboxymethyl cellulose; blood 24 hours after last administration; read-out: Reduction rate (%)
Description: Male Sprague-Dawley rats of 6-week-old were divided into three groups. The first group (normal group) was fed an ordinary diet for 4 days. The second group (control group) was fed a high cholesterol diet (containing 1.0% cholesterol, 1.0% cholic acid and 8.5% coconut oil) for 4 days. The third group (treated group) was fed a high cholesterol diet and was treated with a compound for 4 days.
Simultaneously with the beginning of the above feeding, the compound was suspended in a 0.5% carboxymethyl cellulose solution and administered to the treated group, in a dose of 30 mg (in terms of the compound) per kg of body weight per day for 4 days. A 0.5% carboxymethyl cellulose solution was also administered to the normal group and the control group in the same manner as above.
After 24 hours of the last administration, blood was collected and the cholesterol concentration in serum was measured by an enzymatic method. The reduction rate of the total serum cholesterol concentration was calculated from values obtained for the three groups by the following equation. Choresterol reduction rate (%) =((A) - (B))/((A) - (C))x 100 [formula] wherein A: the serum cholesterol concentration of the control group. B: the serum cholesterol concentration of the treated group. C: the serum cholesterol concentration of the normal group.

[3] = compound concentration 1 (head prints '1 | 0.01 µm')

| Structure (SMILES) | Inhibition rate % ([1]; compound concentration 0.01 µm) | Inhibition rate % [1, 3] | inhibition in vivo at 30 mg/kg [2] |
| --- | --- | --- | --- |
| CC(C)c1cccc(C(C)C)c1NC(=O)Nc1sc(-c2ccccc2)nc1-c1ccccc1Cl [Compound 1, N-[4-(2-Chlorophenyl)-2-phenylthiazol-5-yl]-N'-(2,6-diisopropylphenyl)urea] | 38.7% | 99.9% | 53.8% |
| Cc1ccccc1-c1nc(-c2ccccc2)sc1NC(=O)Nc1c(C(C)C)cccc1C(C)C [Compound 2, N-(2,6-Diisopropylphenyl)-N'-[4-(2-methylphenyl)-2-phenylthiazol-5-yl]urea] | 55.2% | 99.8% | 85.7% |
| Cc1nc(-c2ccccc2)c(NC(=O)Nc2c(C(C)C)cccc2C(C)C)s1 [Compound 3, N-(2,6-Diisopropylphenyl)-N'-(2-methyl-4-phenylthiazol-5-yl)urea] | – | 92.1% | – |
| Cc1nc(-c2ccccc2Cl)c(NC(=O)Nc2c(C(C)C)cccc2C(C)C)s1 [Compound 4, N-[4-(2-Chlorophenyl)-2-methylthiazol-5-yl]-N'-(2,6-diisopropylphenyl)urea] | 63.9% | – | – |
| CCc1cccc(CC)c1NC(=O)Nc1sc(C)nc1-c1ccccc1Cl [Compound 5, N-[4-(2-Chlorophenyl)-2-methylthiazol-5-yl]-N'-(2,6-diethylphenyl)urea] | – | 97.8% | – |
| Cc1nc(-c2ccccc2Cl)c(NC(=O)Nc2ccc(F)cc2F)s1 [Compound 6, N-[4-(2-Chlorophenyl)-2-methylthiazol-5-yl]-N'-(2,4-difluorophenyl)urea] | – | 46.1% | – |
| Cc1nc(-c2ccccc2C)c(NC(=O)Nc2c(C(C)C)cccc2C(C)C)s1 [Compound 8, N-(2,6-DiisopropylphenyI)-N'-[2-methyl-4-(2-methylphenyl)thiazol-5-yl]urea] | – | 99.1% | – |
| Cc1nc(-c2ccccc2C)c(NC(=O)Nc2ccc(F)cc2F)s1 [Compound 9, N-(2,4-Difluorophenyl)-N'-[2-methyl-4-(2-methylphenyl)thiazol-5-yl]urea] | – | 49.4% | – |
| CCc1nc(-c2ccccc2Cl)c(NC(=O)Nc2c(C(C)C)cccc2C(C)C)s1 [Compound 11, N-[4-(2-Chlorophenyl)-2-ethylthiazol-5-yl]-N'-(2,6-diisopropylphenyl)urea] | 42.9% | 99.2% | 46.2% |
| CCCCCc1nc(-c2ccccc2Cl)c(NC(=O)Nc2c(C(C)C)cccc2C(C)C)s1 [Compound 12, N-[4-(2-Chlorophenyl)-2-n-pentylthiazol-5-yl]-N'-(2,6-diisopropylphenyl)urea] | – | 96.2% | – |
| CC(C)c1cccc(C(C)C)c1NC(=O)Nc1sc(C2CCCCC2)nc1-c1ccccc1Cl [Compound 13, N-[4-(2-Chlorophenyl)-2-cyclohexylthiazol-5-yl]-N'-(2,6-diisopropylphenyl)urea] | – | 72.7% | – |
| CC(C)c1cccc(C(C)C)c1NC(=O)Nc1sc(N(C)C)nc1-c1ccccc1Cl [Compound 15, N-[4-(2-Chlorophenyl)-2-dimethylaminothiazol-5-yl]-N'-(2,6-diisopropylphenyl)urea] | – | 99.2% | – |
| CCc1cccc(CC)c1NC(=O)Nc1sc(N2CCCCC2)nc1-c1ccccc1 [Compound 17, N-(2,6-Diethylphenyl)-N'-[4-phenyl-2-(N-piperidino)thiazol-5-yl)urea] | – | 99.8% | – |
| CC(C)c1cccc(C(C)C)c1NC(=O)Nc1sc(N2CCCCC2)nc1-c1ccccc1Cl [Compound 19, N-[4-(2-Chlorophenyl)-2-(N-piperidino)thiazol-5-yl]-N'-(2,6-diisopropylphenyl)urea] | – | 99.9% | – |
| CC(C)c1cccc(C(C)C)c1NC(=O)Nc1sc(N2CCOCC2)nc1-c1ccccc1Cl [Compound 21, N-[4-(2-Chlorophenyl)-2-(N-morpholino)thiazol-5-yl]-N'-(2,6-diisopropylphenyl)urea] | – | 99.8% | – |
| CC(C)c1cccc(C(C)C)c1NC(=O)Nc1nc(-c2ccccc2)sc1-c1ccccc1Cl [Compound 23, N-[5-(2-Chlorophenyl)-2-phenylthiazol-4-yl]-N'-(2,6-diisopropylphenyl)urea] | 59.4% | 99.6% | 108% |

| Structure (SMILES) | Inhibition rate % ([1]; compound concentration 0.01 µm) | Inhibition rate % [1, 3] | inhibition in vivo at 30 mg/kg [2] |
| --- | --- | --- | --- |
| CC(C)c1cccc(C(C)C)c1NC(=O)Nc1nc(N2CCOCC2)sc1-c1ccccc1Cl [Compound 24, N-[5-(2-Chlorophenyl)-2-(N-morpholino)thiazol-4-yl]-N'-(2,6-diisopropylphenyl)urea] | – | 97.9% | – |
| Cc1nc(NC(=O)Nc2c(C(C)C)cccc2C(C)C)c(-c2ccccc2Cl)s1 [Compound 25, N-[5-(2-Chlorophenyl)-2-methylthiazol-4-yl]-N'-(2,6-diisopropylphenyl)urea] | 88.1% | – | 39.1% |
| CCc1cccc(CC)c1NC(=O)Nc1nc(C)sc1-c1ccccc1Cl [Compound 26, N-[5-(2-Chlorophenyl)-2-methylthiazol-4-yl]-N'-(2,6-diethylphenyl)urea] | 51.4% | – | – |
| Cc1ccccc1-c1sc(-c2ccccc2)nc1NC(=O)Nc1c(C(C)C)cccc1C(C)C [Compound 27, N-(2,6-Diisopropylphenyl)-N'-[5-(2-methylphenyl)-2-phenylthiazol-4-yl]urea] | 86.5% | – | 61.7% |
| CCc1cccc(CC)c1NC(=O)Nc1nc(-c2ccccc2)sc1-c1ccccc1C [Compound 28, N-(2,6-Diethylphenyl)-N'-[5-(2-methylphenyl)-2-phenylthiazol-4-yl]urea] | 64.1% | – | 87.8% |
| Cc1nc(NC(=O)Nc2c(C(C)C)cccc2C(C)C)c(-c2ccccc2C)s1 [Compound 29, N-(2,6-Diisopropylphenyl)-N'-[2-methyl-5-(2-methylphenyl)thiazol-4-yl]urea] | 90.2% | – | 46.1% |
| CSc1ccccc1-c1sc(-c2ccccc2)nc1NC(=O)Nc1c(C(C)C)cccc1C(C)C [Compound 30, N-(2,6-Diisopropylphenyl)-N'-[5-(2-methylthiophenyl)-2-phenylthiazol-4-yl]urea] | 76.8% | – | 75.7% |
| Cc1ccccc1-c1oc(-c2ccccc2)nc1NC(=O)Nc1c(C(C)C)cccc1C(C)C [Compound 31, N-(2,6-Diisopropylphenyl)-N'-[5-(2-methylphenyl)-2-phenyloxazol-4-yl]urea] | 70.6% | – | 59.8% |
| Cc1ccccc1-c1nc(-c2ccccc2)oc1NC(=O)Nc1c(C(C)C)cccc1C(C)C [Compound 33, N-(2,6-Diisopropylphenyl)-N'-[4-(2-methylphenyl)-2-phenyloxazol-5-yl]urea] | 62.0% | – | 73.2% |
| CC(C)c1cccc(C(C)C)c1NC(=O)Nc1nc(-c2ccccc2)n(C)c1-c1ccccc1Cl [Compound 35, N-[5-(2-Chlorophenyl)-1-methyl-2-phenylimidazol-4-yl]-N'-(2,6-diisopropylphenyl)urea] | 33.5% | 99.6% | – |
| CC(C)c1cccc(C(C)C)c1NC(=O)Nc1c(-c2ccccc2Cl)nc(-c2ccccc2)n1Cc1ccccc1 [Compound 36, N-[1-Benzyl-4-(2-chlorophenyl)-2-phenylimidazol-5-yl]-N'-(2,6-diisopropylphenyl)urea] | – | 79.5% | – |
| CC(C)c1cccc(C(C)C)c1NC(=O)Nc1nc(-c2ccccc2)n(COCC[Si](C)(C)C)c1-c1ccccc1Cl [Compound 40, N-[5-(2-Chlorophenyl)-2-phenyl-1-(2-trimethylsilyl)ethoxymethylimidazol-4-yl]-N'-(2,6-diisopropylphenyl)urea] | – | 99.4% | – |
| COCn1c(-c2ccccc2)nc(NC(=O)Nc2c(C(C)C)cccc2C(C)C)c1-c1ccccc1Cl [Compound 42, N-[5-(2-Chlorophenyl)-1-methoxymethyl-2-phenylimidazol-4-yl]-N'-(2,6-diisopropylphenyl)urea] | – | 99.2% | – |
| COc1ccc(Cn2c(-c3ccccc3)nc(NC(=O)Nc3c(C(C)C)cccc3C(C)C)c2-c2ccccc2Cl)cc1 [Compound 44, N-[5-(2-Chlorophenyl)-1-(4-methoxybenzyl)-2-phenylimidazol-4-yl]-N'-(2,6-diisopropylphenyl)urea] | – | 99.2% | – |
| CC(C)c1cccc(C(C)C)c1NC(=O)Nc1nc(-c2ccccc2)[nH]c1-c1ccccc1Cl [Compound 45, N-[4(5)-(2-Chlorophenyl)-2-phenylimidazol-5(4)-yl]-N'-(2,6-diisopropylphenyl)urea] | – | 77.9% | – |
